# Assay results: US20230226034A1, “PROPHYLACTIC OR THERAPEUTIC AGENT FOR PHOTODERMATOSIS” (MITSUBISHI TANABE PHARMA CORPORATION, priority 2020, published 2023)
# Marks after values point to notes of the source that are not given here.
# Tests used:
# skin of healthy subjects = conditions: FIG. 2
# [1] = tested on: tyrosinase-related protein 1 (TYRP1); test: Expression of melanin-related gene TYRP1 in skin, clinical trial in healthy subjects; type: in vivo, human; conditions: back skin mRNA, next day versus day before administration
# [2] = tested on: premelanosome protein (PMEL); test: Expression of melanin-related gene PMEL in skin, clinical trial in healthy subjects; type: in vivo, human; conditions: back skin mRNA, next day versus day before administration
# [3] = tested on: Mouse melanoma derived cell line B16F1 cells; test: Melanin production assay in mouse melanoma cell line
# Experimental: The following procedure was used to evaluate the effect of a MC1R agonist on melanin production from mouse melanoma cell lines.
# Mouse melanoma derived cell line B16F1 cells were used in measurement of melanin production. B16F1 cells were cultured by using Dulbecco's Modified Eagle Medium (DMEM) containing 10% fetal bovine serum (FBS) and 100 U/mL Penicillin-Streptomycin.
# One experiment was performed in triplicate, and three independent experiments were performed.
# In consideration of the correspondence of each experiment, the difference in % value from a negative control was determined by performing a two-way Dunnett's test based on each group and the number of experiments as factors. The significance level here was 5% on both sides. Such analysis was performed with SAS.
# [4] = tested on: Male C57BL/6JHamSlc-Ay/+ mice; test: Effect on darkening of mouse body hair; type: in vivo; conditions: day 6
# Experimental: Male C57BL/6JHamSlc-Ay/+ mice (Japan SLC, Inc.) were used. The test was performed with 29- or 30-days old mice, in order to use each individual whose hair cycle was at the anagen stage. The hair on the back of each of the mice was shaved with a clipper before the starting of administration, and any individual with no bad conditions such as nicks and maculae on the skin was selected, and subjected to grouping based on a group configuration shown in Table 3 by performing a simulation method so that the body weights in respective groups were uniform. Administration (also including preparation) of the test substance and evaluation of body hair were performed separately by respective different experimenters, and such evaluation was performed in a blinded manner. The starting date of administration was set to day 0, and the test substance was administered once daily for 6 days (day 0 to day 5).
# The compound was orally administered at a volume of 0.1 mL/10 g (body weight).
# NDP-αMSH (control drug): a required amount of compound was weighed as free-form equivalent, and dissolved in Dulbecco's phosphate-buffered saline (PBS) at a concentration of 0.4 mg/mL. The drug was subcutaneously administered at a volume of 0.05 mL/10 g (body weight).
# Evaluation and sampling were performed on day 6. The mice were euthanized by cervical dislocation, thereafter subjected to hair shaving of each back with a clipper, and each individual was rated as positive (+) or negative (−) by the degree of darkening of body hair.
# A statistical analysis was performed by SAS, and the significance level was 0.05. A 0.5% MC administration group and an NDP-αMSH group were analyzed by Fisher's exact probability test. […] The fixed-order test was performed by Fisher's exact probability test from a higher dose, and, if significant, performing analysis at a lower dose.
# [5] = tested on: Male albino hairless mice (Hos:HR-1); test: UV-A irradiated mouse photoaging model: skin wrinkles by visual observation; type: in vivo; conditions: 3 mg/kg once daily for 8 weeks (compound B oral, HP-228 intraperitoneal); score 0 to 3; FIG. 3
# Source text: (§1) Male albino hairless mice (strain name: Hos:HR-1, Hoshino Laboratory Animals Inc.) were used. The mice were divided into groups so that the body weight of each group was homogenous, and from the next day, the dorsal skin of the mice was irradiated with an incremental amount of ultraviolet A at the frequency of five times a week for 8 weeks to induce photoaging in the groups other than the untreated group. The UV-A irradiation schedule was based on the report by Minami et al. (J Nutrition Biochem 2009, 20, 389).
# (§2) Compound B: The required amount was weighed as free-form equivalent, and suspended in 0.5% MC to achieve the target concentration, and orally administered at a volume of 0.1 mL/10 g (body weight) at 3 mg/kg once daily for 8 weeks.
# (§3) HP-228 (reference control, melanocortin receptor-activating peptide): The required amount of free-form was weighed and dissolved in PBS to achieve the target concentration. 0.1 mL/10 g (body weight) was injected intraperitoneally at 3 mg/kg once daily for 8 weeks.
# Evaluation of skin wrinkles by visual observation (evaluation item a): The state of skin wrinkles was evaluated on a four-step scale from score 0 (fine wrinkles) to 3 (deep and coarse wrinkles) at a frequency of once a week for 8 weeks after UV-A irradiation.
# The skin wrinkle score was tested by Mann-Whitney's U test adjusted for multiplicity, and the significance level was set at 0.05. […]
# type I collagen = test: UV-A irradiated mouse photoaging model: type I collagen content in the skin; type: in vivo; conditions: 3 mg/kg once daily for 8 weeks (compound B oral, HP-228 intraperitoneal); FIG. 4
# Source text: as §1, §2, §3
# Quantification of type I collagen content in the skin (evaluation item b): Mice were euthanized 8 weeks after UV-A irradiation, and their back skin was collected. Homogenates were prepared by adding acetic acid and pepsin to the collected skin. The amount of collagen in the skin homogenate, which was reduced by UV-A, was measured using the Mouse Collagen Type I ELISA Kit. […]
# [6] = tested on: cyclobutane pyrimidine dimer (CPD); test: UV-A irradiated mouse photoaging model: skin histology, CPD immunostaining; type: in vivo
# Source text: as §1, §2, §3
# Skin histological examination (endpoint c): Skin samples were fixed in 10% neutral buffered formalin and paraffin sections were prepared. DNA damage induced by UV-A was detected by enzyme-antibody immunostaining using anti-cyclobutane pyrimidine dimer (CPD) antibody (Cosmo Bio).
# [7] = 0.003 mg/kg p.o. once daily for 6 days
# [8] = 0.03 mg/kg p.o. once daily for 6 days
# [9] = 0.3 mg/kg p.o. once daily for 6 days
# [10] = 3 mg/kg p.o. once daily for 6 days
# [11] = grade + (Slight), dorsal skin, UVA irradiated, 10 animals, 3 mg/kg for 8 weeks
# [12] = grade ± (Minimal), dorsal skin, UVA irradiated, 10 animals, 3 mg/kg for 8 weeks
smiles,measurement,setting,value
"COC[C@H]1CN(C(=O)[C@]2(F)CN(C3CCCC3)C[C@H]2c2ccc(OC)cc2)C[C@@H]1c1ccc(C(F)(F)F)cc1N1CCC(C(=O)O)CC1 [Compound A, Cocrystal of 1-{2-[(3S,4R)-1-{[(3R,4R)-1-cyclopentyl-3-fluoro-4-(4-methoxyphenyl)pyrrolidin-3-yl]carbonyl}-4-(methoxymethyl)pyrrolidin-3-yl]-5-(trifluoromethyl)phenyl}piperidine-4-carboxylic acid with phosphoric acid]",increase in melanin density of the skin,"skin of healthy subjects; 450 mg orally once daily for 14 days, subjects Fitzpatrick Type V",no increase in melanin density
same,increase in melanin density of the skin: time of maximum,skin of healthy subjects; 150 and 300 mg orally once daily for 14 days,maximum on day 15
same,TYRP1 Rate of changes (times),[1]; 30 mg single oral dose,1.3 times
same,TYRP1 Rate of changes (times),[1]; 100 mg single oral dose,1.37 times
same,TYRP1 Rate of changes (times),[1]; 300 mg single oral dose,2.14 times
same,TYRP1 Rate of changes (times),[1]; 600 mg single oral dose,2.65 times
same,PMEL Rate of changes (times),[2]; 30 mg single oral dose,1.22 times
same,PMEL Rate of changes (times),[2]; 100 mg single oral dose,1.77 times
same,PMEL Rate of changes (times),[2]; 300 mg single oral dose,2.49 times
same,PMEL Rate of changes (times),[2]; 600 mg single oral dose,3.54 times
same,melanin production,"[3]; B16F1 cells, 3 days, FIG. 1",induced melanin production in a concentration-dependent manner
same,EC50,"[3]; Mus musculus, B16-F1, 72 h, read-out: EC50 value, melanin production",0.013 nM
same,Number of mice Negative (darkening of body hair),[4]; [7],7
same,Number of mice Positive (darkening of body hair),[4]; [7],0
same,Number of mice Negative (darkening of body hair),[4]; [8],7
same,Number of mice Positive (darkening of body hair),[4]; [8],0
same,Number of mice Negative (darkening of body hair),[4]; [9],0
same,Number of mice Positive (darkening of body hair),[4]; [9],7**
same,Number of mice Negative (darkening of body hair),[4]; [10],0
same,Number of mice Positive (darkening of body hair),[4]; [10],7**
"CCO[C@H]1CC[C@H](N2C[C@@H](c3ccc(OC)cc3)[C@](OC)(C(=O)N3C[C@H](c4ccc(C(F)(F)F)cc4N4CCC(C(=O)O)CC4)C[C@H]3COC)C2)CC1.Cl.Cl (relative stereo) [Compound B, 1-{2-[(3S,5S)-1-[(3R,4R)-1-(trans-4-ethoxycyclohexyl)-3-methoxy-4-(4-methoxyphenyl)pyrrolidin-3-yl]carbonyl}-5-(methoxymethyl)pyrrolidin-3-yl]-5-(trifluoromethyl)phenyl piperidine-4-carboxylic acid, 2 hydrochloride]",skin wrinkle scores,[5],lower or tended to be lower than those of the vehicle control group
same,amount of type I collagen in the skin,type I collagen,significantly higher than that of the vehicle control group
same,Epidermal CPD staining,"[6]; 3 mg/kg once daily for 8 weeks (compound B oral, HP-228 intraperitoneal)",tended to be less positive than in the vehicle control group
same,"Number of animals, CPDs immunostaining, Cells in dermis, grading +",[6]; [11],10
same,"Number of animals, CPDs immunostaining, Epidermis (cell nuclei), grading +",[6]; [11],1
same,"Number of animals, CPDs immunostaining, Hair follicles in dermis (cell nuclei), grading +",[6]; [11],1
same,"Number of animals, CPDs immunostaining, Sebaceous glands (cell nuclei), grading +",[6]; [11],9
same,"Number of animals, CPDs immunostaining, Epidermis (cell nuclei), grading ++","[6]; grade ++ (Moderate), dorsal skin, UVA irradiated, 10 animals, 3 mg/kg for 8 weeks",6
same,"Number of animals, CPDs immunostaining, Epidermis (cell nuclei), grading +++","[6]; grade +++ (Severe), dorsal skin, UVA irradiated, 10 animals, 3 mg/kg for 8 weeks",3
same,"Number of animals, CPDs immunostaining, Hair follicles in dermis (cell nuclei), grading ±",[6]; [12],9
same,"Number of animals, CPDs immunostaining, Other tissues (incl. cytoplasm in sebaceous glands), grading ±",[6]; [12],10
same,"Number of animals, CPDs immunostaining, Sebaceous glands (cell nuclei), grading ±",[6]; [12],1
